Reference: patent publication US5089273A, “Ecteinascidins 729, 743, 745, 759A, 759B and 770” (priority 1990, dated 1992)
Values after ≈ are worked out from the molar mass of the structure shown. Read-outs that look alike come from different tables or passages of the source.

Tests used:
M. luteus = assay: Antimicrobial activity vs. M. luteus (disk zones of inhibition); type: cell-based; settings: for zone of inhibition at 0.1 µg/disc: 100 ng/6.35-mm disk; for zone of inhibition at 0.2 µg/disc: 200 ng/6.35-mm disk; for times less potent than ecteinascidins 729 and 743: relative to ecteinascidins 729 and 743
Procedure: (§1) The antimicrobial activities (vs. M. luteus) and the cytotoxic activities (vs. CV-1 cells) of the ecteinascidins and ecteinascidin 743 derivatives are shown in Table 1 and 2. […] All of the derivatives of ecteinascidin 743 that were prepared have antimicrobial and cytotoxic activities.

CV-1 cells = assay: Cytotoxic activity vs. CV-1 cells (disk zones of inhibition); type: cell-based; settings: for zone of inhibition at 0.4 µg/disc / zone of inhibition at 0.8 µg/disc / zone of inhibition at 1.6 µg/disc / zone of inhibition at 0.05 µg/disc / zone of inhibition at 0.1 µg/disc / zone of inhibition at 0.2 µg/disc: Cercopithecidae, read-out: Zones of Inhibition
Procedure: as §1

Sarcina lutea sens. = assay: Antimicrobial Spectrum, zones of inhibition; type: cell-based; settings: Micrococcus luteus; 5 μg/disk; 6.35-mm disk
Penicillium oxalicum = assay: Antimicrobial Spectrum, zones of inhibition; type: cell-based; settings: 5 μg/disk, 6.35-mm disk
Bacillus subtilis = assay: Antimicrobial Spectrum, zones of inhibition; type: cell-based; settings: 5 μg/disk, 6.35-mm disk
Saccharomyces cerevisiae = assay: Antimicrobial Spectrum, zones of inhibition; type: cell-based; settings: 5 μg/disk, 6.35-mm disk
Klebsiella pneumoniae = assay: Antimicrobial Spectrum, zones of inhibition; type: cell-based; settings: 5 μg/disk, 6.35-mm disk
P388 leukemia = assay: In vivo P388 mouse leukemia test
Source text: Compounds of this invention are also active in vivo against P388 leukemia in mice. The P388 mouse leukemia test is described in detail in a publication by G. L. Neil et al., Cancer Treatment Reports, 63: 1971-1978 (1979).

[1] = tested on: L1210 mouse leukemia cells; assay: L1210 Tube Dilution Assay; type: cell-based
Source text: The L1210 tube dilution assay is described in detail in a publication by L. H. Li, et al., Cancer Research, 39:4816 (1979). ID50 and ID90 refer to the concentration of ecteinascidin needed to inhibit cell growth by […], respectively.

Escherichia coli = assay: Antimicrobial Spectrum, zones of inhibition; type: cell-based; settings: 5 μg/disk, 6.35-mm disk
Bacillus subtilis syn = assay: Antimicrobial Spectrum, zones of inhibition; type: cell-based; settings: 5 μg/disk, 6.35-mm disk
Staphylococcus aureus = assay: Antimicrobial Spectrum, zones of inhibition; type: cell-based; settings: 5 μg/disk, 6.35-mm disk
Mycobacterium avium = assay: Antimicrobial Spectrum, zones of inhibition; type: cell-based; settings: 5 μg/disk, 6.35-mm disk
bacteria = assay: Antibacterial Activity (disk zone of inhibition, Example 4); type: cell-based
Source text: | Zone of inhibition (mm)

Pseudomonas aeruginosa = assay: Antimicrobial Spectrum, zones of inhibition; type: cell-based; settings: 5 μg/disk, 6.35-mm disk
[2] = Micrococcus luteus, 400 ng/6.35-mm disk
[3] = Micrococcus luteus, 800 ng/6.35-mm disk
[4] = Micrococcus luteus, 1600 ng/6.35-mm disk

Compound: COc1cc2c(cc1O)CCN[C@]21CS[C@@H]2c3c(O)c(C)c4c(c3[C@H](COC1=O)N1[C@@H]2[C@H]2c3c(cc(C)c(OC)c3O)C[C@@H]([C@@H]1O)N2C)OCO4 [Deacetyl, Deacetylecteinascidin 743]
- zone of inhibition at 0.1 µg/disc (M. luteus; Micrococcus luteus): 8 mm
- zone of inhibition at 0.2 µg/disc (M. luteus; Micrococcus luteus): 10 mm
- zone of inhibition at 0.4 µg/disc (M. luteus; [2]): 12 mm
- zone of inhibition at 0.8 µg/disc (M. luteus; [3]): 14 mm
- zone of inhibition at 1.6 µg/disc (M. luteus; [4]): 16 mm
- zone of inhibition at 0.4 µg/disc (CV-1 cells; 400 ng/6.35-mm disk): 11 mm
- zone of inhibition at 0.8 µg/disc (CV-1 cells; 800 ng/6.35-mm disk): 15 mm
- zone of inhibition at 1.6 µg/disc (CV-1 cells; 1600 ng/6.35-mm disk): 16 mm

Compound: COc1cc2c(cc1OC)[C@@]1(CS[C@@H]3c4c(OC(C)=O)c(C)c5c(c4[C@H](COC1=O)N1[C@@H]3[C@H]3c4c(cc(C)c(OC)c4OC)C[C@@H]([C@@H]1O)N3C)OCO5)NCC2 [Di- -- O-methyl, Di-O-methylecteinascidin 743]
- zone of inhibition at 0.8 µg/disc (M. luteus; [3]): 8 mm
- zone of inhibition at 1.6 µg/disc (M. luteus; [4]): 11 mm
- zone of inhibition at 0.05 µg/disc (CV-1 cells): 13 mm
- zone of inhibition at 0.1 µg/disc (CV-1 cells): 15 mm
- zone of inhibition at 0.2 µg/disc (CV-1 cells): 17 mm
- zone of inhibition at 0.4 µg/disc (CV-1 cells): 13 mm
- zone of inhibition at 0.8 µg/disc (CV-1 cells): 16 mm
- zone of inhibition at 1.6 µg/disc (CV-1 cells): 18 mm

Compound: COc1cc2c(cc1O)CCN[C@]21CS[C@@H]2c3c(OC(C)=O)c(C)c4c(c3[C@H](COC1=O)N1C[C@@H]3Cc5cc(C)c(OC)c(O)c5[C@H]([C@H]21)N3C)OCO4 [Ecteinascidin 745]
- zone of inhibition at 5 µg/disc (Sarcina lutea sens.): 18 mm
- antimicrobial activity (in words) (M. luteus; dilutions accurate to within a factor of 2): greatly reduced activity
- times less potent than ecteinascidins 729 and 743 (M. luteus): ~32 times
- zone of inhibition at 5 µg/disc (Penicillium oxalicum): 0 mm
- zone of inhibition at 5 µg/disc (Bacillus subtilis): 0 mm
- zone of inhibition at 5 µg/disc (Saccharomyces cerevisiae): 0 mm
- zone of inhibition at 5 µg/disc (Klebsiella pneumoniae): 0 mm
- cytotoxic activity (in words) (CV-1 cells): greatly reduced activity
- zone of inhibition at 0.8 µg/disc (CV-1 cells; 800 ng/6.35-mm disk): 9 mm
- zone of inhibition at 1.6 µg/disc (CV-1 cells; 1600 ng/6.35-mm disk): 14 mm
- T/C (P388 leukemia; 0.25 mg/kg, Example 6): ca. 100
- T/C (%) (P388 leukemia; 0.25 mg/kg, Table 4): 111%
- antitumor activity (in words) (P388 leukemia; mouse, in vivo): greatly reduced activity
- IC90 ([1]; L1210, concentration needed to inhibit cell growth by 90 percent, in vitro, read-out: ID90 (the source's name)): 0.19 µg/mL (≈ 0.255 µM)
- IC50 ([1]; L1210, read-out: ID50): 0.088 µg/mL (≈ 0.118 µM)
- zone of inhibition at 5 µg/disc (Escherichia coli): 0 mm
- zone of inhibition at 5 µg/disc (Bacillus subtilis syn): 0 mm
- zone of inhibition at 5 µg/disc (Staphylococcus aureus): 0 mm
- zone of inhibition at 5 µg/disc (Mycobacterium avium): 0 mm
- Zone of inhibition (bacteria; 20 μg/disk): trace
- zone of inhibition at 40 µg/disc (bacteria; 40 μg/disk): 7 mm
- zone of inhibition at 5 µg/disc (Pseudomonas aeruginosa): 0 mm

Compound: COc1cc2c(cc1O)CCN[C@]21C[S+]([O-])[C@@H]2c3c(OC(C)=O)c(C)c4c(c3[C@H](COC1=O)N1[C@H]2[C@H]2c3c(cc(C)c(OC)c3O)C[C@@H]([C@H]1O)N2C)OCO4 (some centres unmarked) [Ecteinascidin 759B]
- Zones of Inhibition (M. luteus; 400 ng/6.35-mm disk): 10 mm
- Zones of Inhibition (M. luteus; 800 ng/6.35-mm disk): 13 mm
- Zones of Inhibition (M. luteus; 1600 ng/6.35-mm disk): 15 mm
- times less potent than ecteinascidins 729 and 743 (M. luteus): four to eight times less potent
- Zones of Inhibition (CV-1 cells; 100 ng/6.35-mm disk): 11 mm
- Zones of Inhibition (CV-1 cells; 200 ng/6.35-mm disk): 13 mm
- Zones of Inhibition (CV-1 cells; 400 ng/6.35-mm disk): 15 mm
- Zones of Inhibition (CV-1 cells; 800 ng/6.35-mm disk): 22 mm
- Zones of Inhibition (CV-1 cells; 1600 ng/6.35-mm disk): 22 mm
- Zone of inhibition (bacteria; 0.1 μg/disk): 9 mm
- Zone of inhibition (bacteria; 1 μg/disk): 15 mm

Compound: COc1cc2c(cc1O)CCN[C@]21CS[C@@H]2c3c(OC(C)=O)c(C)c4c(c3[C@H](COC1=O)N1[C@@H]2[C@H]2c3c(cc(C)c(OC)c3O)C[C@@H]([C@@H]1C#N)N2C)OCO4 [Ecteinascidin 770]
- zone of inhibition at 0.4 µg/disc (M. luteus; [2]): 9 mm
- zone of inhibition at 0.8 µg/disc (M. luteus; [3]): 12 mm
- zone of inhibition at 1.6 µg/disc (M. luteus; [4]): 15 mm
- times less potent than ecteinascidins 729 and 743 (M. luteus): four to eight times less potent
- zone of inhibition at 0.05 µg/disc (CV-1 cells; 50 ng/6.35-mm disk): 10 mm
- zone of inhibition at 0.1 µg/disc (CV-1 cells; 100 ng/6.35-mm disk): 14 mm
- zone of inhibition at 0.2 µg/disc (CV-1 cells; 200 ng/6.35-mm disk): 16 mm
- zone of inhibition at 0.4 µg/disc (CV-1 cells; 400 ng/6.35-mm disk): 20 mm
- zone of inhibition at 0.8 µg/disc (CV-1 cells; 800 ng/6.35-mm disk): 24 mm
- zone of inhibition at 1.6 µg/disc (CV-1 cells; 1600 ng/6.35-mm disk): 25 mm
- Zone of inhibition (bacteria; 0.1 μg/disk): trace
- zone of inhibition at 1 µg/disc (bacteria; 1 μg/disk): 14 mm

Compound: COc1cc2c(cc1OC)[C@@]1(CS[C@@H]3c4c(OC(C)=O)c(C)c5c(c4[C@H](COC1=O)N1[C@@H]3[C@H]3c4c(cc(C)c(OC)c4O)C[C@@H]([C@@H]1O)N3C)OCO5)NCC2 [Mono- -- O-methyl, Mono-O-methylecteinascidin 743]
- zone of inhibition at 0.2 µg/disc (M. luteus; Micrococcus luteus): 8 mm
- zone of inhibition at 0.4 µg/disc (M. luteus; [2]): 11 mm
- zone of inhibition at 0.8 µg/disc (M. luteus; [3]): 14 mm
- zone of inhibition at 1.6 µg/disc (M. luteus; [4]): 14 mm
- zone of inhibition at 0.05 µg/disc (CV-1 cells): 13 mm
- zone of inhibition at 0.1 µg/disc (CV-1 cells): 22 mm
- zone of inhibition at 0.2 µg/disc (CV-1 cells): 20 mm
- zone of inhibition at 0.4 µg/disc (CV-1 cells): 23 mm
- zone of inhibition at 0.8 µg/disc (CV-1 cells): 25 mm
- zone of inhibition at 1.6 µg/disc (CV-1 cells): 26 mm

Compound: COc1cc2c(cc1OC(C)=O)CCN[C@]21CS[C@@H]2c3c(OC(C)=O)c(C)c4c(c3[C@H](COC1=O)N1[C@@H]2[C@H]2c3c(cc(C)c(OC)c3O)C[C@@H]([C@@H]1O)N2C)OCO4 [Monoacetyl, Acetylecteinascidin 743]
- zone of inhibition at 0.05 µg/disc (M. luteus; Micrococcus luteus, 50 ng/6.35-mm disk): 10 mm
- zone of inhibition at 0.1 µg/disc (M. luteus; Micrococcus luteus): 12 mm
- zone of inhibition at 0.2 µg/disc (M. luteus; Micrococcus luteus): 14 mm
- zone of inhibition at 0.4 µg/disc (M. luteus; [2]): 20 mm
- zone of inhibition at 0.8 µg/disc (M. luteus; [3]): 20 mm
- zone of inhibition at 1.6 µg/disc (M. luteus; [4]): 28 mm
- activity relative to ecteinascidin 743 (in words) (M. luteus; relative to the original compound, antimicrobial and cytotoxic): enhanced activity over the original compound
- zone of inhibition at 0.05 µg/disc (CV-1 cells; 50 ng/6.35-mm disk): 18 mm
- zone of inhibition at 0.1 µg/disc (CV-1 cells; 100 ng/6.35-mm disk): 22 mm
- zone of inhibition at 0.2 µg/disc (CV-1 cells; 200 ng/6.35-mm disk): 22 mm
- zone of inhibition at 0.4 µg/disc (CV-1 cells; 400 ng/6.35-mm disk): 25 mm
- zone of inhibition at 0.8 µg/disc (CV-1 cells; 800 ng/6.35-mm disk): 28 mm
- zone of inhibition at 1.6 µg/disc (CV-1 cells; 1600 ng/6.35-mm disk): 30 mm

Compound: COc1cc2c(cc1OC(=O)c1ccc(Br)cc1)CCN[C@]21CS[C@@H]2c3c(OC(C)=O)c(C)c4c(c3[C@H](COC1=O)N1[C@@H]2[C@H]2c3c(cc(C)c(OC)c3O)C[C@@H]([C@@H]1O)N2C)OCO4 [p-Bromobenzoyl, p-Bromobenzoylecteinascidin 743]
- zone of inhibition at 0.4 µg/disc (M. luteus; [2]): 8 mm
- zone of inhibition at 0.8 µg/disc (M. luteus; [3]): 10 mm
- zone of inhibition at 1.6 µg/disc (M. luteus; [4]): 12 mm
- zone of inhibition at 0.2 µg/disc (CV-1 cells; 200 ng/6.35-mm disk): 10 mm
- zone of inhibition at 0.4 µg/disc (CV-1 cells; 400 ng/6.35-mm disk): 12 mm
- zone of inhibition at 0.8 µg/disc (CV-1 cells; 800 ng/6.35-mm disk): 16 mm
- zone of inhibition at 1.6 µg/disc (CV-1 cells; 1600 ng/6.35-mm disk): 18 mm

Compound: Ecteinascidin 759A
- Zones of Inhibition (M. luteus; 800 ng/6.35-mm disk): 8 mm
- Zones of Inhibition (M. luteus; 1600 ng/6.35-mm disk): 10 mm
- times less potent than ecteinascidins 729 and 743 (M. luteus): four to eight times less potent
- Zones of Inhibition (CV-1 cells; 400 ng/6.35-mm disk): 10 mm
- Zones of Inhibition (CV-1 cells; 800 ng/6.35-mm disk): 16 mm
- Zones of Inhibition (CV-1 cells; 1600 ng/6.35-mm disk): 16 mm
- Zone of inhibition (bacteria; 1 μg/disk): 9 mm
